The values below come from patent US8975400B2, “2,3-dihydroimidazo[1, 2-c] pyrimidin-5(1 H)-one compounds use as LP-PLA2 inhibitors” (Glaxo Group Limited, priority 2011, dated 2015).

Each structure is given as a SMILES string. Counter-ions that a name gives are not always drawn. Bounds are passed on as bounds.

One test concerns the target T1, recombinant human Lp-PLA2 (Homo sapiens, UniProt Q13093).
T1 sequence (Q13093 22-441): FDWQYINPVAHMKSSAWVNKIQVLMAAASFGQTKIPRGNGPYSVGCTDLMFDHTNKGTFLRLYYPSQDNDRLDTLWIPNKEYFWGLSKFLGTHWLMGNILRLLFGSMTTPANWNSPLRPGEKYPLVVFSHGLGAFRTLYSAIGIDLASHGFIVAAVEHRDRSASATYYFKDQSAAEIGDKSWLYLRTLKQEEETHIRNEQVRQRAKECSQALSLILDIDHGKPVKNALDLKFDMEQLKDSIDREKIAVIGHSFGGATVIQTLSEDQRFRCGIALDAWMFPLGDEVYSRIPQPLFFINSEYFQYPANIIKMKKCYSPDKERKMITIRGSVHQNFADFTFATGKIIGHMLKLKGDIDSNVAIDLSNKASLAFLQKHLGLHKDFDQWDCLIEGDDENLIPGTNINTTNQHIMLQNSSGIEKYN
Nature of the test: Recombinant human Lp-PLA2 assay (rhLp-PLA2, PED6 assay). The class given is biochemical. The settings on record: recombinant human Lp-PLA2, PED6 substrate; upper limit for pIC50 in this assay is 9.3. The source says:
(1) Recombinant Human Lp-PLA2 Assay (rhLp-PLA2) (Also Referred to as “PED6” Assay)
N-((6-(2,4-dinitrophenyl)amino)-hexanoyl)-2-(4,4-difluoro-5,7-dimethyl-4-bora-3a,4a-diaza-s-indacene-3-pentanoyl)-1-hexadecanoyl-sn-glycero-3-phosphoethanolamine, triethylammonium salt (PED6) is a commercially available fluorescently-labeled phospholipid, which is commercially available from Invitrogene and Molecular Probes. There is a quenching […] and a Bodipy fluorescein (FL) group in the sn2 position. Upon cleavage with Lp-PLA2, the Bodipy FL group is liberated and then may result in an increase in fluorescence. Inhibitors of Lp-PLA2 therefore prevent this cleavage and no fluorescent increase is observed.
The PED6 assay was run as an unquenched 10 μL assay. The source plate containing the compounds to be tested was prepared by making 1:3 (by volume) serial dilution of the compounds within DMSO on 384-well microplate. Then, 0.01 μL of the compounds on compound source plate were transferred into 384 well Greiner 784076 (black) plates using ECHO liquid dispenser. 5 µL of recombinant human Lp-PLA2 enzyme (4 nM (or 110 pM) rhLp-PLA2 in assay buffer of 50 mM HEPES, pH 7.4, 150 mM NaCl, 1 mM CHAPS) was added to each well of the plate. Plates were centrifuged for 10 sec at 500 rpm. After 30 minutes preincubation, 5 µL of substrate (4 μM (or 5 μM) PED6 [from 5 mM DMSO stock] in assay buffer of 50 mM HEPES, pH 7.4, 150 mM NaCl, 1 mM CHAPS) was added to 384 well Greiner 784076 (black) plates. Plates were centrifuged for 10 sec at 500 rpm. The plate was covered to protect it from light and incubated for 20 min at room temperature. The plates were read for fluorescence intensity at ex: 480/em: 540 using ViewLux microplate imager for Envision spectrofluroimeters pIC50 data, curve and QC analysis was conducted by using XL fit module in Excel.
The compounds described below were tested generally according to the PED6 assay described above.
Turning to `O=c1nc(OCc2ccc(Oc3ccc(Cl)c(Cl)c3)c(F)c2)cc2n1CCN2` [Example 98, 7-((4-(3,4-dichlorophenoxy)-3-fluorobenzyl)oxy)-2,3-dihydroimidazo[1,2-c]pyrimi-din-5(1H)-one], the IC50 is at most 10 nM.

For the compound `N#Cc1cc(COc2cc3n(c(=O)n2)CCN3)ccc1Oc1cccc(C(F)(F)F)c1` [Example 112, 5-(((5-oxo-1,2,3,5-tetrahydroimidazo[1,2-c]pyrimidin-7-yl)oxy)methyl)-2-(3-(trifluoromethyl)phenoxy)benzonitrile], the IC50 was at most 10 nM.

For `N#Cc1cc(COc2cc3n(c(=O)n2)CCN3)ccc1Oc1cnc(F)c(F)c1` [Example 117, 2-((5,6-difluoropyridin-3-yl)oxy)-5-(((5-oxo-1,2,3,5-tetrahydroimidazo[1,2-c]pyrimidin-7-yl)oxy)methyl)benzonitrile], the IC50 is at most 10 nM.

Regarding `O=c1nc(OCc2ccc(Oc3cc(F)cc(C(F)(F)F)c3)c(F)c2)cc2n1CCN2` [Example 151, 7-((3-fluoro-4-(3-fluoro-5-(trifluoromethyl)phenoxy)benzyl)oxy)-2,3-dihydroim-idazo[1,2-c]pyrimidin-5(1H)-one], the IC50 is at most 1 nM. Still for that read-out and setting: the figure for `CN1CCn2c1cc(OCc1cc(F)c(Oc3ccc(F)cc3)c(F)c1)nc2=O` [Example E12, 7-((3,5-difluoro-4-(4-fluorophenoxy)benzyl)oxy)-1-methyl-2,3-dihydroimidazo[1,2-c]pyrimidin-5(1H)-one] is at most 10 nM; for `CN1CCn2c1cc(OCc1ccc(F)c(Oc3cccc(Cl)c3)c1)nc2=O` [Example E16, 7-((3-(3-chlorophenoxy)-4-fluorobenzyl)oxy)-1-methyl-2,3-dihydroimidazo[1,2-c]pyrimidin-5(1H)-one] it is at most 10 nM; for `CN1CCn2c1cc(OCc1ccc(Oc3ccc(F)cc3)c(C#N)c1)nc2=O` [Example E22, 2-(4-fluorophenoxy)-5-(((1-methyl-5-oxo-1,2,3,5-tetrahydroimidazo[1,2-c]pyrimidin-7-yl)oxy)methyl)benzonitrile] it is at most 10 nM. Same read-out and setting: the value for `CN1CCn2c1cc(OCc1ccc(Oc3cc(F)cc(F)c3)c(F)c1)nc2=O` [Example E43, 7-((4-(3,5-difluorophenoxy)-3-fluorobenzyl)oxy)-1-methyl-2,3-dihydroimidazo[1,2-c]pyrimidin-5(1H)-one, trifluoroacetic acid salt] was at most 10 nM; that for `O=c1nc(OCc2ccc(Oc3cccc(C(F)(F)F)c3)c(Cl)c2)cc2n1CCN2` [Example E61, 7-((3-chloro-4-(3-(trifluoromethyl)phenoxy)benzyl)oxy)-2,3-dihydroimidazo[1,2-c]pyrimidin-5(1H)-one] was at most 10 nM.

A further test addresses T2, Lp-PLA2 in human plasma (Homo sapiens, UniProt Q13093).
T2 construct: This assay may detect the activity of Lp-PLA2 in human plasma; from tissue; host or cells: pooled human plasma
T2 sequence (Q13093 22-441): T1 sequence (Q13093 22-441)
Nature of the test: Lp-PLA2 human plasma assay (Thio-PAF assay). The settings on record: pooled human plasma, 2-thio-PAF substrate; read-out: pIC50 in the thio-PAF assay (converted). The class given is biochemical. The text has this: (3) Lipoprotein-Associated Phospholipase A2 (Lp-PLA2) Human Plasma Assay (Also Referred to as “Thio-PAF Assay”)
The human plasma assay utilizes a thioester analog of PAF (phosphatidylcholine), where hydrolysis yields to the formation of a phospholipid containing a free thiol group. The amount of thiol is quantitated continuously by reacting with CPM (7-diethylamino-3-(4′-maleimidylphenyl)-4-methylcoumarin), a maleimide which increases in fluoresence after Michael addition of thiols. This assay may detect the activity of Lp-PLA2 in human plasma, as determined by specific inhibition by Lp-PLA2 inhibitors.
The thio-PAF assay was run as a quenched 15 μL assay. Compounds source plate was prepared by making 1:3 (by volume) serial dilution of the compounds into pure DMSO on 384-well microplate. 0.01 μL of compounds on compound source plate were transferred to 384 well Greiner 784076 (black) low-volume plates by ECHO liquid dispenser. 8 μL pooled human plasma, which was previously aliquoted and frozen, was added. Plates were centrifuged for 10 sec at 500 rpm. After 30 minutes preincubation, 2 μL of substrate solution comprising 2.5 mM 2-thio-PAF [from ethanol stock], 32 μM CPM [from a DMSO stock] and 3.2 mM NEM (N-ethylmaleimide) [made fresh daily in DMSO] in assay buffer of 50 mM HEPES, pH 7.4, 150 mM NaCl, 1 mM CHAPS was added to 384 well Greiner 784076 (black) low-volume plates by BRAVO liquid handling station. After 2 mins, reaction was quenched with 5 μL of 5% aqueous trifluoroacetic acid (TFA). Plates were covered to protect from light and incubated for 40 min at room temperature. Plates were read at ex: 380/em: 485 using-Envision microplate reader. pIC50 data, curve and QC analysis was conducted by using XLFit module in Excel.
With `CN1CCn2c1cc(OCc1ccc(Oc3ccc(C#N)nc3)c(C#N)c1)nc2=O` [Example 108, 5-(2-cyano-4-(((1-methyl-5-oxo-1,2,3,5-tetrahydroimidazo[1,2-c]pyrimidin-7-yl)oxy)methyl)phenoxy)picolinonitrile], the IC50 was at most 1000 nM. The same measure, in the same setting: the figure for `CN1CCn2c1cc(OCc1ccc(Oc3cncc(F)c3)c(C#N)c1)nc2=O` [Example 137, 2-((5-fluoropyridin-3-yl)oxy)-5-(((1-methyl-5-oxo-1,2,3,5-tetrahydroimidazo[1,2-c]pyrimidin-7-yl)oxy)methyl)benzonitrile] is at most 1000 nM; for `CN1CCn2c1cc(OCc1ccc(Oc3cncc(C#N)c3)c(C#N)c1)nc2=O` [Example 138, 5-(2-cyano-4-(((l-methyl-5-oxo-1,2,3,5-tetrahydroimidazo[1,2-c]pyrimidin-7-yl)oxy)methyl)phenoxy)nicotinonitrile] it is at most 1000 nM. On the same count and under the same terms, the figure for `CN1CCn2c1cc(OCc1ccc(Oc3cncc(C#N)c3)c(F)c1)nc2=O` [Example 141, 5-(2-fluoro-4-(((1-methyl-5-oxo-1,2,3,5-tetrahydroimidazo[1,2-c]pyrimidin-7-yl)oxy)methyl)phenoxy)nicotinonitrile] is at most 1000 nM.

Regarding `CN1CCn2c1cc(OCc1ccc(F)c(C#N)c1)nc2=O` [Example 146, 2-fluoro-5-(((l-methyl-5-oxo-1,2,3,5-tetrahydroimidazo[1,2-c]pyrimidin-7-yl)oxy)methyl)benzonitrile], the IC50 is at most 1000 nM. Regarding `CN1CCn2c1cc(OCc1ccc(F)c(F)c1)nc2=O` [Example E7, 7-((3,4-difluorobenzyl)oxy)-1-methyl-2,3-dihydroimidazo[1,2-c]pyrimidin-5(1H)-one], the IC50 was at most 1000 nM. Same read-out and setting: the figure for `CN1CCn2c1cc(OCc1cc(F)c(F)c(F)c1)nc2=O` [Example E17, 1-methyl-7-((3,4,5-trifluorobenzyl)oxy)-2,3-dihydroimidazo[1,2-c]pyrimidin-5(1H)-one] is at most 1000 nM; for `CN1CCn2c1cc(OCc1ccc(Oc3cnc(C(F)(F)F)nc3)c(C#N)c1)nc2=O` [Example E31, 5-(((l-methyl-5-oxo-1,2,3,5-tetrahydroimidazo[1,2-c]pyrimidin-7-yl)oxy)methyl)-2-((2-(trifluoromethyl)pyrimidin-5-yl)oxy)benzonitrile] it is at most 1000 nM; for `CN1CCn2c1cc(OCc1cccc(C#N)c1)nc2=O` [Example E33, 3-(((1-methyl-5-oxo-1,2,3,5-tetrahydroimidazo[1,2-c]pyrimidin-7-yl)oxy)meth-yl)benzonitrile] it is at most 1000 nM. On the same count and under the same terms, the value for `CN1CCn2c1cc(OCc1ccc(Oc3ccc(F)c(Cl)c3)c(C#N)c1)nc2=O` [Example E39, 2-(3-chloro-4-fluorophenoxy)-5-(((1-methyl-5-oxo-1,2,3,5-tetrahydroimidazo[1,2-c]pyrimidin-7-yl)oxy)methyl)benzonitrile, trifluoroacetic acid salt] was at most 1000 nM.

For the compound `CC(C)N1CCn2c1cc(OCc1ccc(F)c(F)c1)nc2=O` [Example E47, 7-((3,4-difluorobenzyl)oxy)-1-isopropyl-2,3-dihydroimidazo[1,2-c]pyrimidin-5(1H)-one, trifluoroacetic acid salt], the IC50 was at most 1000 nM.

Consider `Cc1ccc(Oc2ccc(COc3cc4n(c(=O)n3)CCN4C)cc2C#N)cn1` [Example E56, 5-(((1-methyl-5-oxo-1,2,3,5-tetrahydroimidazo[1,2-c]pyrimidin-7-yl)oxy)methyl)-2-((6-methylpyridin-3-yl)oxy)benzonitrile, trifluoroacetic acid salt], for which the IC50 was at most 1000 nM.

Turning to `N#Cc1cccc(COc2cc3n(c(=O)n2)CCN3)c1` [Example E60, 3-(((5-oxo-1,2,3,5-tetrahydroimidazo[1,2-c]pyrimidin-7-yl)oxy)methyl)benzonitrile], the IC50 was at most 1000 nM. On the same count and under the same terms, the figure for `O=c1nc(OCc2ccc(F)c(F)c2)cc2n1CCN2` [Example E68, 7-((3,4-difluorobenzyl)oxy)-2,3-dihydroimidazo[1,2-c]pyrimidin-5(1H)-one] is at most 1000 nM.
